Laboratory results published in patent publication US20070092587A1, “Extract from plant of japanese parsley family and process for producing the same” (priority 2004, published 2007).

Key:
[1] = molecular target: T1, human muscle cell-derived aldose reductase (Homo sapiens, UniProt P15121); assay: Inhibitory action for aldose reductase (change in NADPH absorbance at 340 nm, methylglyoxal substrate); format: biochemical
T1 construct: purchased Wako Pure Chemical Industries, Ltd
Description: Inhibitory action for aldose reductase of the extract from the root portion of Angelica keiskei koidz. was determined in accordance with the following method. As a sample, 20 μL of a 100 mM methylglyoxal solution was added to 10 μL of each of the kinds of ethanol extracts from the root portion of Angelica keiskei koidz. prepared in Example 4, and 10 μL of the water extract from the root portion of Angelica keiskei koidz. prepared in Preparation Example 1 (a solution prepared by dissolving the extract in a 50% aqueous dimethyl sulfoxide solution), 100 μL of 0.2 M phosphate buffer (pH 6.2), 20 μL of 1 mM NADPH (phosphate buffer), and 10 μL of a human muscle cell-derived aldose reductase solution (0.1 U/mL, manufactured by Wako Pure Chemical Industries, Ltd., phosphate buffer). For a period of 180 seconds after 30 seconds passed, the change in absorbance of NADPH at 340 nm was determined. As a negative control, a 50% aqueous dimethyl sulfoxide solution was used in place of the sample. Also, the absorbance was determined using distilled water as a blank solution for each sample in place of the methylglyoxal solution. The determination values were expressed as an average of two experimental values. The inhibitory ratio (%) for aldose reductase was calculated in accordance with the following formula: Inhibitory Ratio (%)=[1−(ΔAs−ΔAsb)/(ΔAc−ΔAcb)]×100, wherein ΔAs and ΔAc show a change in the absorbance of each of the sample solution and the negative control solution per minute; and ΔAsb and ΔAcb show a change in the absorbance of the blank solutions for the sample solution and the negative control solution per minute.
The inhibitory activity for aldose reductase of the extract from the leaf and stem portions of Angelica keiskei koidz. prepared in Example 3 was determined in the same manner as in Example 8.

[2] = tested on: mature adipocytes (3T3-L1 cells); assay: Enhancing action on glucose uptake (2-deoxyglucose uptake) into mature adipocytes; format: cell-based; details: insulin 1 μg/mL positive control, compared to negative control
Description: The induction of differentiation into mature adipocytes was carried out by partially modifying the method of Rubin C. S. et al. 3T3-L1 cells were suspended in a 10% fetal bovine serum-containing Dulbecco's modified Eagle's medium containing 200 μM ascorbic acid so as to have a density of 4×10^3 cells/mL, and the suspension was put in each well of a 12-well microtiter plate in an amount of 2 mL per well. The cells were cultured at 37° C. for 7 days in the presence of 5% carbon dioxide gas. On the seventh day, the medium was exchanged with 2 mL of a 10% fetal bovine serum-containing Dulbecco's modified Eagle's medium containing 200 μM ascorbic acid, 0.25 μM dexamethasone, 10 μg/mL insulin and 0.5 mM 3-isobutyl-1-methylxanthine (manufactured by Nacalai Tesque, Inc., 19624-44). After 45 hours, the medium was exchanged with 2 mL of a 10% fetal bovine serum-containing Dulbecco's modified Eagle's medium containing 200 μM ascorbic acid and 5 μg/mL insulin. The medium was exchanged on after 2 days and 4 days, and the cells were cultured for 7 days, to give mature adipocytes.
As the evaluation of enhancing action on glucose uptake, and also as the evaluation of insulin-mimetic action, the amount of 2-deoxyglucose uptake into mature adipocytes stimulated with the sample ([…]) in the adipocytes was determined.
After the termination of the culture, the medium was removed, and the cells were washed twice with a 0.1% (w/v) bovine serum albumin (manufactured by Sigma, A8022)-containing Dulbecco's modified Eagle's medium. Thereafter, 1 mL of the […] ethanol solution at a final concentration of 0.1%, 0.067%, or 0.022%, […] solution at a final concentration of 0.2%, 0.067%, or 0.022%, […] ethanol solution or the dimethyl sulfoxide solution of the extract from the root portion of Angelica keiskei koidz. with the 100% ethanol so as to have a final concentration of 0.067% or 0.022%, each extract being prepared in Example 4, was put to each well. The cells were cultured overnight at 37° C. in the presence of 5% carbon dioxide gas. Here, a group without addition of the sample was set as a negative control. After the overnight culture, the cells were washed twice with a HEPES buffered saline (140 mM NaCl, 5 mM KCl, 2.5 mM MgSO4, 1 mM CaCl2, 20 mM HEPES-Na (pH 7.4)), and 0.9 mL of the […] ethanol solution at a final concentration of 0.1%, 0.067%, or 0.022%, […] solution at a final concentration of 0.2%, 0.067%, or 0.022%, […] ethanol solution or the dimethyl sulfoxide solution of the extract from the root portion of Angelica keiskei koidz. with the 100% ethanol so as to have a final concentration of 0.067% or 0.022%, was added thereto. The cells were cultured at 37° C. for 75 minutes. At the point when 45 minutes passed, there was set in a well without addition of the sample a group with addition of insulin so as to have a final concentration of 1 μg/mL as a positive control. Thereafter, 100 μL of a HEPES buffered saline containing 0.5 μCi/mL 2-deoxy-[1,2-^3H(N)]-glucose (manufactured by PerkinElmer Life Sciences Inc., NET549A) and 1 mM 2-deoxyglucose (manufactured by Nacalai Tesque, Inc., 10722-11) was added thereto, and the cells were further cultured at 37° C. for 10 minutes. […] The radioactivity was determined with a liquid scintillation counter LS6500 (manufactured by Beckmann) using 25 μl of the supernatant with Ultima Gold (manufactured by PerkinElmer Life Sciences Inc., 6013329) as a scintillation cocktail. […]

[3] = tested on: Preadipocyte cell line 3T3-L1; assay: Induction of differentiation into adipocytes (amount of triglyceride biosynthesis); format: cell-based; details: for induction of biosynthesis of triglyceride (inducing action on differentiation into mature adipocytes): isolated compounds at final 1-30 μM, seven days after addition
Description: The induction of differentiation into adipocytes was carried out by partially modifying the method of Rubin C. S. et al. (J. Biol. Chem., Vol. 253, No. 20, p7570-7578 (1978)). Preadipocyte cell line 3T3-L1 (ATCC CCL-92.1) was suspended in a 10% fetal bovine serum (manufactured by GIBCO)-containing Dulbecco's modified Eagle's medium (manufactured by Sigma, D6046) containing 200 μM ascorbic acid (hereinafter referred to as A-D-MEM medium) so as to have a density of 4×10^3 cells/mL, and the suspension was put in each well of a 12-well microtiter plate in an amount of 2 mL per well. The cells were cultured at 37° C. for 7 days in the presence of 5% carbon dioxide gas. The medium was exchanged with the same medium on the second day and the fourth day. On the seventh day, the medium was exchanged with A-D-MEM medium containing 0.25 μM dexamethasone. […] Here, there were set a group with addition of 4 μL of a 5 mg/mL aqueous solution of insulin (manufactured by TAKARA BIO INC.) as a positive control, and a group with addition of dimethyl sulfoxide as a negative control. After 45 hours, the medium was exchanged with A-D-MEM medium. […] The cells were cultured for additional 7 days.
The amount of triglyceride in the adipocytes was determined as an index for inducing differentiation into matured adipocytes, and as evaluation of insulin-mimetic action. After the termination of the culture, the medium was removed, and the cells were washed twice with a phosphate buffered saline. One milliliter of a solvent of hexane: isopropanol=3:2 was added thereto. The mixture was allowed to stand at room temperature for 30 minutes, and thereafter the supernatant was collected. The procedures were repeated again, and 2 mL of the resulting supernatant was concentrated to dryness. The precipitate was dissolved in 100 μL of isopropanol, and thereafter the amount of triglyceride contained in 10 μL of the resulting solution was determined with Triglyceride E-Test (manufactured by Wako Pure Chemical Industries, Ltd., code 432-40201). All of the determinations were carried out twice.
Specifically, as a sample, there was set a group with addition of the dimethyl sulfoxide solution of the extract from the root portion of Angelica keiskei koidz. with the 40% aqueous ethanol solution at a final concentration of 0.1% or 0.033%, the dimethyl sulfoxide solution of the extract from the root portion of Angelica keiskei koidz. with the 50% aqueous ethanol solution at a final concentration of 0.033% or 0.011%, the dimethyl sulfoxide solution of the extract from the root portion of Angelica keiskei koidz. with the 70% aqueous ethanol solution at a final concentration of 0.022%, the dimethyl sulfoxide solution of the extract from the root portion of Angelica keiskei koidz. with the 60% or 80% aqueous ethanol solution or the dimethyl sulfoxide solution of the extract with the 100% ethanol so as to have a final concentration of 0.067% or 0.022%, respectively, to each well. Here, there were set a group with addition of 4 μL of a 5 mg/mL aqueous solution of insulin (manufactured by TAKARA BIO INC.) as a positive control, and a group with addition of dimethyl sulfoxide as a negative control. Thereafter, the medium and the sample were exchanged in the same manner as in the method described in Example 5, and after seven days from the addition of the sample, the amount of triglyceride in the adipocytes was determined.
Here, there were set a group with addition of 4 μL of a 5 mg/mL aqueous solution of insulin (manufactured by TAKARA BIO INC.) as a positive control, and a group with addition of dimethyl sulfoxide as a negative control. Thereafter, the medium and the sample were exchanged in the same manner as in the method described in Example 5, and after seven days from the addition of the sample, the amount of triglyceride in the adipocytes was determined.

aldose reductase = aldose reductase (Homo sapiens, UniProt P15121); details: clarified in WO 2004/031165; cited from earlier work
[4] = isolated compounds at final 3-30 μM

Molecule | Inhibitory Ratio (%) of Aldose Reductase ([1]; 2.5 μM) [%] | Inhibitory Ratio (%) of Aldose Reductase ([1]; 5 μM) [%] | Inhibitory Ratio (%) of Aldose Reductase ([1]; 10 μM) [%] | Inhibitory Ratio (%) of Aldose Reductase ([1]; 20 μM) [%] | enhancement of 2-deoxy-[1,2-3H(N)]-glucose uptake [2, 4] | induction of biosynthesis of triglyceride (inducing action on differentiation into mature adipocytes) [3] | Inhibitory Ratio (%) of Aldose Reductase ([1]; 40 μM) [%] | enhancement of 2-deoxy-[1,2-3H(N)]-glucose uptake ([2]; root extracts (Example 4) at final 0.022-0.2%) | induction of triglyceride biosynthesis (activity of inducing differentiation into adipocytes) ([3]; leaf and stem extracts (Example 3) at final 0.011-0.2%, insulin positive control, compared to dimethyl sulfoxide group) | inhibitory actions for aldose reductase (aldose reductase)
xanthoangelol H | 40.4 | 57.8 | 72.2 | 80.8 | enhancement of 2-deoxy-[1,2-^3H(N)]-glucose uptake was found | induction of biosynthesis of triglyceride was found | – | – | – | –
CC(C)=CCC/C(C)=C/Cc1c(O)ccc2c1O[C@H](c1ccc(O)cc1)CC2=O [Prostratol F, prostratol F] | 27.4 | 46.3 | 57.1 | 61.4 | – | induction of biosynthesis of triglyceride was found | – | – | – | –
CC(C)=CCc1c(O)ccc(C(=O)/C=C/c2ccc(O)cc2)c1O [Isobavachalcone, isobavachalcone] | – | – | 30.2 | 47.4 | enhancement of 2-deoxy-[1,2-^3H(N)]-glucose uptake was found | induction of biosynthesis of triglyceride was found | 60.1 | – | – | –
COc1ccc(C(=O)/C=C/c2ccc(O)cc2)c(O)c1CC=C(C)C [4-hydroxyderricin] | – | – | – | – | enhancement of 2-deoxy-[1,2-^3H(N)]-glucose uptake was found | induction of biosynthesis of triglyceride was found | – | – | – | –
insulin: insulin (manufactured by TAKARA BIO INC.), positive control [reference compound] | – | – | – | – | enhancement of 2-deoxy-[1,2-^3H(N)]-glucose uptake was found | – | – | enhancement of 2-deoxy-[1,2-^3H(N)]-glucose uptake was found | induction of triglyceride biosynthesis could be also confirmed | –
COc1ccc2c(c1CC=C(C)C)O[C@H](c1ccc(O)cc1)CC2=O [Munduleaflavanone A, munduleaflavanone A] | 38.5 | 54.6 | 68.5 | 73.8 | – | induction of biosynthesis of triglyceride was found | – | – | – | –
CC12CCC(O)C(C)(C)C1Cc1c(O)ccc(C(=O)/C=C/c3ccc(O)cc3)c1O2 (stereo not shown) [TB1] | – | – | – | – | – | induction of biosynthesis of triglyceride was found | – | – | – | inhibitory actions for aldose reductase are found
bavachromanol | 42.1 | 58.2 | 70.5 | 80.1 | – | – | – | – | – | –
CC(C)=CCCC1(C)Oc2c(C(=O)/C=C/c3ccc(O)cc3)ccc(O)c2CC1O (stereo not shown) [TB2] | – | – | – | – | – | induction of biosynthesis of triglyceride was found | – | – | – | inhibitory actions for aldose reductase are found
